We go through two compounds from ChEMBL document CHEMBL4393680, “Design, synthesis and biological evaluation of novel thioquinazolinone-based 2-aminobenzamide derivatives as potent histone deacetylase (HDAC) inhibitors” (Eur J Med Chem, 2019).

By inhibition is commonly meant the share of the control response that was lost under treatment. A word on the IC50: it is the concentration at which inhibition is half-maximal.

SMILES strings stand for the structures.

Test [1] deals with A-375. As to the kind of experiment: Antiproliferative activity against human A375 cells assessed as reduction in cell growth at 8 uM incubated for 72 hrs by CCK-8 assay relative to control. The class given is functional. The settings on record: A-375, 72 h. On the technique in general: Tetrazolium assays rely on reduction of a dye to a coloured formazan, in cell work by metabolically active cells.

Test [2] relates to SMMC-7721. Description: Induction of apoptosis in human SMMC7721 cells assessed as necrotic cells at 0.25 uM incubated for 48 hrs by Annexin-V-FITC/propidium iodide staining based flow cytometry (Rvb=1.88%). The class given is functional.
Test [3] has as its system SMMC-7721. Description: Cell cycle arrest in human SMMC7721 cells assessed as accumulation at G0/G1 phase at 0.25 uM incubated for 48 hrs by propidium iodide staining based flow cytometry (Rvb=77%). In kind it is functional. Background: Flow cytometry measures light scatter and fluorescence of single cells or particles in a stream.
The test system of test [4] is A549. Description: Antiproliferative activity against human A549 cells assessed as reduction in cell growth at 2 uM incubated for 72 hrs by CCK-8 assay relative to control. In kind it is functional. To be noted: A549, 72 h.
Test [5] has as its system SMMC-7721. Description: Induction of apoptosis in human SMMC7721 cells assessed as viable cells at 4 uM incubated for 48 hrs by Annexin-V-FITC/propidium iodide staining based flow cytometry (Rvb=93.5%). To be noted: SMMC-7721, 48 h, read-out: Activity. The class given is functional.
Test [6] concerns SMMC-7721. Description: Induction of apoptosis in human SMMC7721 cells assessed as necrotic cells at 4 uM incubated for 48 hrs by Annexin-V-FITC/propidium iodide staining based flow cytometry (Rvb=1.88%). The class given is functional.
Test [7] deals with SMMC-7721. Description: Antiproliferative activity against human SMMC7721 cells assessed as reduction in cell growth at 2 uM incubated for 72 hrs by CCK-8 assay relative to control. In kind it is functional. The settings on record: SMMC-7721, 72 h.
Test [8] deals with SMMC-7721. As to the kind of experiment: Induction of apoptosis in human SMMC7721 cells assessed as early apoptotic cells at 0.25 uM incubated for 48 hrs by Annexin-V-FITC/propidium iodide staining based flow cytometry (Rvb=2.88%). In kind it is functional.
Another test has as its system NIH3T3. As to the kind of experiment: Cytotoxicity against mouse NIH/3T3 cells assessed as reduction in cell viability after 48 hrs by CCK8 assay. The class given is cell-based. The settings on record: NIH3T3, 48 h.
In test [9] the test system is SMMC-7721. Description: Induction of apoptosis in human SMMC7721 cells assessed as necrotic cells at 1 uM incubated for 48 hrs by Annexin-V-FITC/propidium iodide staining based flow cytometry (Rvb=1.88%). In kind it is functional.
Test [10] concerns SMMC-7721. As to the kind of experiment: Cell cycle arrest in human SMMC7721 cells assessed as accumulation at G0/G1 phase at 1 uM incubated for 48 hrs by propidium iodide staining based flow cytometry (Rvb=77%). The class given is functional.
The subject of test [11] is SMMC-7721. Description: Induction of apoptosis in human SMMC7721 cells assessed as viable cells at 0.25 uM incubated for 48 hrs by Annexin-V-FITC/propidium iodide staining based flow cytometry (Rvb=93.5%). The settings on record: SMMC-7721, 48 h, read-out: Activity. The class given is functional.
The subject of test [12] is SMMC-7721. Description: Induction of apoptosis in human SMMC7721 cells assessed as early apoptotic cells at 1 uM incubated for 48 hrs by Annexin-V-FITC/propidium iodide staining based flow cytometry (Rvb=2.88%). In kind it is functional.
Test [13] deals with SMMC-7721. As to the kind of experiment: Cell cycle arrest in human SMMC7721 cells assessed as accumulation at S phase at 1 uM incubated for 48 hrs by propidium iodide staining based flow cytometry (Rvb=6.83%). The class given is functional.
The subject of test [14] is SMMC-7721. Description: Cell cycle arrest in human SMMC7721 cells assessed as accumulation at S phase at 0.25 uM incubated for 48 hrs by propidium iodide staining based flow cytometry (Rvb=6.83%). In kind it is functional.
Test [15] relates to HeLa. Description: Antiproliferative activity against human HeLa cells assessed as reduction in cell growth incubated for 72 hrs by CCK-8 assay. The class given is functional, cell-based.
In test [16] the test system is SMMC-7721. Description: Cell cycle arrest in human SMMC7721 cells assessed as accumulation at G2/M phase at 4 uM incubated for 48 hrs by propidium iodide staining based flow cytometry (Rvb=16.17%). The class given is functional.
Test [17] relates to SMMC-7721. As to the kind of experiment: Induction of apoptosis in human SMMC7721 cells assessed as late apoptotic cells at 4 uM incubated for 48 hrs by Annexin-V-FITC/propidium iodide staining based flow cytometry (Rvb=1.73%). The class given is functional.
Test [18] has as its system HCT-116. As to the kind of experiment: Antiproliferative activity against human HCT116 cells assessed as reduction in cell growth at 8 uM incubated for 72 hrs by CCK-8 assay relative to control. The class given is functional. To be noted: HCT-116, 72 h.
Test [19] relates to SMMC-7721. As to the kind of experiment: Induction of apoptosis in human SMMC7721 cells assessed as viable cells at 1 uM incubated for 48 hrs by Annexin-V-FITC/propidium iodide staining based flow cytometry (Rvb=93.5%). In kind it is functional. The settings on record: SMMC-7721, 48 h, read-out: Activity.
Test [20] concerns HCT-116. As to the kind of experiment: Antiproliferative activity against human HCT116 cells assessed as reduction in cell growth at 2 uM incubated for 72 hrs by CCK-8 assay relative to control. The settings on record: HCT-116, 72 h. In kind it is functional.
The test system of test [21] is SMMC-7721. Description: Antiproliferative activity against human SMMC7721 cells assessed as reduction in cell growth at 8 uM incubated for 72 hrs by CCK-8 assay relative to control. The class given is functional. To be noted: SMMC-7721, 72 h.
Test [22] concerns SMMC-7721. Description: Induction of apoptosis in human SMMC7721 cells assessed as early apoptotic cells at 4 uM incubated for 48 hrs by Annexin-V-FITC/propidium iodide staining based flow cytometry (Rvb=2.88%). In kind it is functional.
Test [23] concerns HeLa. Description: Antiproliferative activity against human HeLa cells assessed as reduction in cell growth at 2 uM incubated for 72 hrs by CCK-8 assay relative to control. The class given is functional.
The test system of test [24] is SMMC-7721. As to the kind of experiment: Cell cycle arrest in human SMMC7721 cells assessed as accumulation at S phase at 4 uM incubated for 48 hrs by propidium iodide staining based flow cytometry (Rvb=6.83%). The class given is functional.
Test [25] relates to A-375. Description: Antiproliferative activity against human A375 cells assessed as reduction in cell growth at 2 uM incubated for 72 hrs by CCK-8 assay relative to control. In kind it is functional. To be noted: A-375, 72 h.
In test [26] the test system is HeLa. As to the kind of experiment: Antiproliferative activity against human HeLa cells assessed as reduction in cell growth at 8 uM incubated for 72 hrs by CCK-8 assay relative to control. In kind it is functional.
Test [27] deals with SMMC-7721. As to the kind of experiment: Cell cycle arrest in human SMMC7721 cells assessed as accumulation at G0/G1 phase at 4 uM incubated for 48 hrs by propidium iodide staining based flow cytometry (Rvb=77%). The class given is functional.
The test system of test [28] is A549. As to the kind of experiment: Antiproliferative activity against human A549 cells assessed as reduction in cell growth incubated for 72 hrs by CCK-8 assay. The class given is functional, cell-based. The settings on record: A549, 72 h.
Test [29] deals with SMMC-7721. As to the kind of experiment: Cell cycle arrest in human SMMC7721 cells assessed as accumulation at G2/M phase at 0.25 uM incubated for 48 hrs by propidium iodide staining based flow cytometry (Rvb=16.17%). The class given is functional.
Test [30] relates to SMMC-7721. Description: Cell cycle arrest in human SMMC7721 cells assessed as accumulation at G2/M phase at 1 uM incubated for 48 hrs by propidium iodide staining based flow cytometry (Rvb=16.17%). In kind it is functional.
Test [31] has as its system SMMC-7721. As to the kind of experiment: Induction of apoptosis in human SMMC7721 cells assessed as late apoptotic cells at 1 uM incubated for 48 hrs by Annexin-V-FITC/propidium iodide staining based flow cytometry (Rvb=1.73%). The class given is functional.
For test [32], the system named is SMMC-7721. As to the kind of experiment: Induction of apoptosis in human SMMC7721 cells assessed as late apoptotic cells at 0.25 uM incubated for 48 hrs by Annexin-V-FITC/propidium iodide staining based flow cytometry (Rvb=1.73%). The class given is functional.
Test [33] concerns A549. As to the kind of experiment: Antiproliferative activity against human A549 cells assessed as reduction in cell growth at 8 uM incubated for 72 hrs by CCK-8 assay relative to control. In kind it is functional. To be noted: A549, 72 h.
Test [34] relates to A-375. As to the kind of experiment: Antiproliferative activity against human A375 cells assessed as reduction in cell growth incubated for 72 hrs by CCK-8 assay. In kind it is functional, cell-based. The settings on record: A-375, 72 h.
Test [35] deals with HCT-116. As to the kind of experiment: Antiproliferative activity against human HCT116 cells assessed as reduction in cell growth incubated for 72 hrs by CCK-8 assay. In kind it is functional, cell-based. To be noted: HCT-116, 72 h.

For the compound `Nc1ccccc1NC(=O)c1ccc(CNC(=O)OCc2cccnc2)cc1` [ENTINOSTAT], the inhibition at 8 µM in the test on A-375 [1] was 83.1%; in the test with HCT-116 [18] it was 72.3%; in the test with SMMC-7721 [21] it was 48.7%; in the test with HeLa [26] it was 89.8%; in the test with A549 [33], 47.3%. Also, the Activity with SMMC-7721 [2] was found to be 1.18%; in the test with SMMC-7721 [3] it was 75.1%; with SMMC-7721 [6], 5.64%; in the test on SMMC-7721 [8], 4.13%; in the test with SMMC-7721 [9] it was 2.5%; in the test on SMMC-7721 [10], 76.1%. Besides, the Activity in the test on SMMC-7721 [12] is reported as 6.66%; in the test on SMMC-7721 [13], 9.55%; in the test with SMMC-7721 [14], 9.47%; in the test with SMMC-7721 [16] it was 14.35%; in the test with SMMC-7721 [17] it was 27.9%; with SMMC-7721 [22], 12.5%. For the same compound, the Activity is reported as 14.21% in the test with SMMC-7721 [24]; 71.44% in the test with SMMC-7721 [27]; 15.43% in the test on SMMC-7721 [29]; 14.35% in the test on SMMC-7721 [30]; 9.39% with SMMC-7721 [31]; 3.31% with SMMC-7721 [32]. Also, the inhibition at 2 µM stood at 20% in the test with A549 [4]; 28.2% in the test with SMMC-7721 [7]; 67.3% in the test with HCT-116 [20]; 42.4% in the test with HeLa [23]; 30.2% in the test with A-375 [25]. Besides, in the test with SMMC-7721 [5], the viability at 4 µM turned out to be 53.9%. Moreover, the figures for the IC50 with NIH3T3, with HeLa [15] and with A549 [28] were 2.42 µM, 2.36 µM and 7.15 µM, respectively. In the test on SMMC-7721 [11], the viability at 0.25 µM worked out at 91.4%. In addition, the viability at 1 µM in the test with SMMC-7721 [19] came to 81.5%.

On to `COc1ccc2c(=O)n(CC/C=C/[S+](C)[O-])c(SCc3ccc(C(=O)Nc4ccccc4N)cc3)nc2c1` (stereo not drawn), for which the inhibition at 8 µM worked out at 67.2% in the test with A-375 [1]; 88% with HCT-116 [18]; 57.2% with SMMC-7721 [21]; 74.1% in the test on HeLa [26]; 56.3% in the test on A549 [33]. The inhibition at 2 µM in the test on A549 [4] amounted to 36.9%; with SMMC-7721 [7] it was 6.9%; with HCT-116 [20], 59%; in the test on HeLa [23], 35.8%; with A-375 [25] it was 34.4%. Besides, the IC50 with HeLa [15] worked out at 2.69 µM; in the test with A-375 [34], 2.82 µM; with HCT-116 [35] it was 1.59 µM; in the test on A549 [28] it was 6.62 µM.
